Data reported in paper PMC10458444 (Viruses, 2023).
Where a name gives a salt, the structure may show the parent alone.

How the values were obtained:
SARS-CoV-2 (D614) PsV = test: microbe, parasite or virus in culture; assay type: cell-based; conditions: for IC50: Severe acute respiratory syndrome coronavirus 2, 48 h, read-out: IC50, inhibition of SARS-CoV-2 (D614) PsV infection
SARS-CoV PsV = test: microbe, parasite or virus in culture; assay type: cell-based; conditions: Severe acute respiratory syndrome coronavirus, 48 h, read-out: IC50, inhibition of SARS-CoV PsV infection
MERS-CoV PsV = test: microbe, parasite or virus in culture; assay type: cell-based; conditions: Middle East respiratory syndrome-related coronavirus, 48 h, read-out: IC50, inhibition of MERS-CoV PsV infection
[1] = Cytotoxicity assay (CCK-8); conditions: human, HEK293T-hACE2 cells
SARS-CoV-2 spike protein = SARS-CoV-2 spike protein (Severe acute respiratory syndrome coronavirus 2, UniProt P0DTC2); assay type: cell-based; conditions: co-incubated with PsV 1 h, HEK293T-hACE2 cells 12 h, Western blotting
[2] = system: SARS-CoV-2 Omicron BA.4 PsV; assay type: cell-based
[3] = system: SARS-CoV-2 spike-pseudovirus (D614); design: species or system K18-hACE2 transgenic mice; conditions: mouse, in vivo
SARS-CoV-2 PsV (D614) = test: Time-of-addition assay; assay type: cell-based; conditions: compound added 8 h after the addition of SARS-CoV-2 PsV

CC(CN(C)C)CN1c2ccccc2Sc2ccccc21 (stereo not drawn) [Alimemazine hemitartrate, alimemazine hemitartrate]
SI, selectivity index = CC50/IC50 (SARS-CoV-2 (D614) PsV): 111.929 | IC50 (SARS-CoV-2 (D614) PsV): 0.477 ± 0.124 µM | IC50 (SARS-CoV PsV): 0.356 µM | IC50 (MERS-CoV PsV): 1.22 µM | CC50 at 48 h [1]: 53.4 ± 10.9 µM

teicoplanin
effect on cleavage of S protein in cells (full-length S protein level) (SARS-CoV-2 spike protein): prevented the cleavage of S protein

CC(=O)c1ccc2c(c1)N(CCCN(C)C)c1ccccc1S2 [Acepromazine maleate, acepromazine maleate]
SI, selectivity index = CC50/IC50 (SARS-CoV-2 (D614) PsV): 51.179 | IC50 (SARS-CoV-2 (D614) PsV): 1.82 ± 0.23 µM | IC50 (SARS-CoV PsV): 1.39 µM | IC50 (MERS-CoV PsV): 1.58 µM | inhibitory activity in primary screening against Omicron (BA.4) PsV [2]: significant inhibitory activities | CC50 at 48 h [1]: 93.3 ± 11.5 µM

CN1CCN(CCCN2c3ccccc3Sc3ccc(Cl)cc32)CC1 [Prochlorperazine maleate, prochlorperazine maleate]
infection, luciferase gene expression in lung tissues (RT-qPCR) [3]: significantly inhibited | viral load, HIV-1 Gag p55 and p24 protein levels in lung [3]: significant reduction in the viral load | CC50 at 48 h [1]: 85.2 ± 13.9 µM | inhibitory activity, time of addition (SARS-CoV-2 PsV (D614)): about 20%

OCCN1CCN(CCCN2c3ccccc3Sc3ccc(Cl)cc32)CC1 [Perphenazine, perphenazine]
SI, selectivity index = CC50/IC50 (SARS-CoV-2 (D614) PsV): 21.805 | IC50 (SARS-CoV-2 (D614) PsV): 0.831 ± 0.12 µM | IC50 (SARS-CoV PsV): 1.16 µM | IC50 (MERS-CoV PsV): 1.28 µM | inhibitory activity in primary screening against Omicron (BA.4) PsV [2]: significant inhibitory activities | CC50 at 48 h [1]: 18.1 ± 1.45 µM

CCCCCCCCCC(=O)OCCN1CCN(CCCN2c3ccccc3Sc3ccc(C(F)(F)F)cc32)CC1 [Fluphenazine decanoate, fluphenazine decanoate]
SI, selectivity index = CC50/IC50 (SARS-CoV-2 (D614) PsV): 15.775 | IC50 (SARS-CoV-2 (D614) PsV): 3.9 ± 1.09 µM | IC50 (SARS-CoV PsV): 3.96 µM | IC50 (MERS-CoV PsV): 2.65 µM | CC50 at 48 h [1]: 61.6 ± 28.8 µM
